Data as given in patent US10508120B2, “TYK2 inhibitors and uses thereof” (Nimbus Lakshmi, Inc., priority 2017, dated 2019).

Legend:
[1] = target: JAK2/JAK2 homdimeric complex (Homo sapiens (Human), UniProt O60674); assay: GM-CSF Induced pSTAT5 in Human PBMC; assay type: cell-based; details: GM-CSF 5 ng/mL for 20 minutes, pSTAT5 by MSD, read-out: PBMC_GMCSF_pSTAT5 IC50
[2] = target: human TYK2 (JH2domain-pseudokinase) (Homo sapiens (Human), UniProt P29597); assay: TYK2 JH2 Domain Binding Assay (KINOMEscan)
Method in brief: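 Competition binding of a DNA-tagged fusion of human TYK2 JH2 pseudokinase (G556–D888) with NFkB DNA-binding domain, from HEK293 extracts (<0.1 nM final), against immobilised ligand beads; 1 h shaking at room temperature, 0.9% DMSO. Bound kinase quantified by qPCR.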

Tyk2 kinase domain (DH1) = Tyk2 kinase domain (DH1) (Homo sapiens (Human), UniProt P29597); assay: Tyk2 Radioactive Kinase Assay; assay type: biochemical; details: compound at 10 μM; ATP 10 μM; read-out: Tyk2 JH1% Inhibition @ 10 μM
Method in brief: (§1)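 Compounds were tested at a single concentration of 10 μM in a radiometric kinase format against each isolated kinase domain. Activity is reported as percent inhibition at that concentration.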

JAK2 kinase domain (JH1) = JAK2 kinase domain (JH1) (Homo sapiens (Human), UniProt O60674); assay: JAK2 Radioactive Kinase Assay; assay type: biochemical; details: compound at 10 μM; ATP 10 μM; read-out: JAK2 JH1% Inhibition @ 10 μM
Method in brief: as §1

[3] = target: Tyk2/JAK2 (heterodimeric complex) (Homo sapiens (Human), UniProt P29597); assay: IL-12 Induced pSTAT4 in Human PBMC; assay type: cell-based; details: 1.7 ng/mL IL-12
Text: The IL-12 Induced pSTAT4 assay evaluates the inhibition of IL-12 induced STAT4 phophorylation mediated by Tyk2/JAK2 (heterodimeric complex).

human TYK2 (JH2domain-pseudokinase), sequence (P29597 556-888): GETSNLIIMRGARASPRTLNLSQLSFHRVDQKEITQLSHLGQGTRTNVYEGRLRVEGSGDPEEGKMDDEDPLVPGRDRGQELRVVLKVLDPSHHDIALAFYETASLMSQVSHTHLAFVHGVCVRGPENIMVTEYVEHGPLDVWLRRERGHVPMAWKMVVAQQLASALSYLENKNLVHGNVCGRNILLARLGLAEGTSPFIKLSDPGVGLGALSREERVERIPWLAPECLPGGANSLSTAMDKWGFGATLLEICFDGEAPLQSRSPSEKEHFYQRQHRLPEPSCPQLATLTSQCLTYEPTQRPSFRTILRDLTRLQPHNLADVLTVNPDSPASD
Tyk2/JAK2 (heterodimeric complex), sequence (P29597 whole entry, other chains not shown): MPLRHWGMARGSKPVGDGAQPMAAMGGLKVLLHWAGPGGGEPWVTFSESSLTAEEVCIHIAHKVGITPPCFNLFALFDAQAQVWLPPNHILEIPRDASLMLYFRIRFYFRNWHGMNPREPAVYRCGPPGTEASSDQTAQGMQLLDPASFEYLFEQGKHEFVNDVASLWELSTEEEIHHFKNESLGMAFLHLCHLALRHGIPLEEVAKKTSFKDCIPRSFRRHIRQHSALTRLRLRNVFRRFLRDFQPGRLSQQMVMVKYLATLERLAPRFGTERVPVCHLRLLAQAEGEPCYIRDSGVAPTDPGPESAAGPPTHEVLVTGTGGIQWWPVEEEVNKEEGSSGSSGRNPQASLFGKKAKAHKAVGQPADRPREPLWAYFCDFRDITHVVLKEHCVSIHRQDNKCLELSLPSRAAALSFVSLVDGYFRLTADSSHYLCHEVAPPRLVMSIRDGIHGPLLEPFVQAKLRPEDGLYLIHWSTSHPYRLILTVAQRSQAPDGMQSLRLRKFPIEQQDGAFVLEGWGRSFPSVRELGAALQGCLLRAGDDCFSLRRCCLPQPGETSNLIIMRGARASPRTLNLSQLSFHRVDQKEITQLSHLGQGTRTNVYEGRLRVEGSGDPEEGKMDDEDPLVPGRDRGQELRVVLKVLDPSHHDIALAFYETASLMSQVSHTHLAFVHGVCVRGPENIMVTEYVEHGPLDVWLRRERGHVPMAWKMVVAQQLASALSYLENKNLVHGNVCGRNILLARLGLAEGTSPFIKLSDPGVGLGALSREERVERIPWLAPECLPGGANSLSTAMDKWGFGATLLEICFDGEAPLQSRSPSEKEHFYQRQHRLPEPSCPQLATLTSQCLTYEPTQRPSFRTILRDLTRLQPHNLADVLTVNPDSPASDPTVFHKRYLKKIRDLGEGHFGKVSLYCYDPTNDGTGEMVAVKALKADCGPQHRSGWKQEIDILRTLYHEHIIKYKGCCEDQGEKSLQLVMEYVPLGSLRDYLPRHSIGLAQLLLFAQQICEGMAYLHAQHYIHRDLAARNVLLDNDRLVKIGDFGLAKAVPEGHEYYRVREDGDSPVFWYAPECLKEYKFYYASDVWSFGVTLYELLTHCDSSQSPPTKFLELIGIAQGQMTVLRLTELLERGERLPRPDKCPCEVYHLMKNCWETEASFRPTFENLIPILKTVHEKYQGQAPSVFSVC
JAK2/JAK2 homdimeric complex, sequence (O60674 whole entry, the tested form may be a part): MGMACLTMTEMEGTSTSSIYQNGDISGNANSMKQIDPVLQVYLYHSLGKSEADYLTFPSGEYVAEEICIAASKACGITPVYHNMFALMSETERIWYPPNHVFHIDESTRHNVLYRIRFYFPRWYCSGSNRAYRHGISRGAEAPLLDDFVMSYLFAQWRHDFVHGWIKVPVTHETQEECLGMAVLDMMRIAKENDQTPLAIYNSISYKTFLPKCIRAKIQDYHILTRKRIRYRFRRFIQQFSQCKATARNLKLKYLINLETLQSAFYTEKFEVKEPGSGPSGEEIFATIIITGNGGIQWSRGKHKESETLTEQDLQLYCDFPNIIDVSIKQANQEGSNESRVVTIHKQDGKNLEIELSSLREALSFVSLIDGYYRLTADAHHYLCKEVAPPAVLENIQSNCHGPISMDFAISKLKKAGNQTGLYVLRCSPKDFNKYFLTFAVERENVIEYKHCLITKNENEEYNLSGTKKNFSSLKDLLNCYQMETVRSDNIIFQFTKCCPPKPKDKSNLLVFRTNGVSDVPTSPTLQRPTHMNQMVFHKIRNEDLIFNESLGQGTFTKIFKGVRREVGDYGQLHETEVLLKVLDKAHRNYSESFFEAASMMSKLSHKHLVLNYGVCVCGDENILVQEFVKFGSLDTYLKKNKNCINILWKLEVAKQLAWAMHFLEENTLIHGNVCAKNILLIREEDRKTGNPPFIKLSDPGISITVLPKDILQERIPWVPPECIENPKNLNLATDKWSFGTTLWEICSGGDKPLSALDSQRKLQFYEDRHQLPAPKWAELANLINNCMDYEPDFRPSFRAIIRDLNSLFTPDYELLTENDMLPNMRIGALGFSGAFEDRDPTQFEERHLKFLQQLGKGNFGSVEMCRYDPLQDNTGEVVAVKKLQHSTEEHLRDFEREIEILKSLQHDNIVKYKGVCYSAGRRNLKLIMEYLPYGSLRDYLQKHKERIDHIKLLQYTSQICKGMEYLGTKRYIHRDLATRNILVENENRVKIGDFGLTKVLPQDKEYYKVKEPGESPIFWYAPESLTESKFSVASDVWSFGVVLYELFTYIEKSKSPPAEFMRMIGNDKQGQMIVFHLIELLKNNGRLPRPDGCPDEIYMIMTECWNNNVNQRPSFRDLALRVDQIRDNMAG
JAK2/JAK2 homdimeric complex, sequence (P32927 17-897 partner): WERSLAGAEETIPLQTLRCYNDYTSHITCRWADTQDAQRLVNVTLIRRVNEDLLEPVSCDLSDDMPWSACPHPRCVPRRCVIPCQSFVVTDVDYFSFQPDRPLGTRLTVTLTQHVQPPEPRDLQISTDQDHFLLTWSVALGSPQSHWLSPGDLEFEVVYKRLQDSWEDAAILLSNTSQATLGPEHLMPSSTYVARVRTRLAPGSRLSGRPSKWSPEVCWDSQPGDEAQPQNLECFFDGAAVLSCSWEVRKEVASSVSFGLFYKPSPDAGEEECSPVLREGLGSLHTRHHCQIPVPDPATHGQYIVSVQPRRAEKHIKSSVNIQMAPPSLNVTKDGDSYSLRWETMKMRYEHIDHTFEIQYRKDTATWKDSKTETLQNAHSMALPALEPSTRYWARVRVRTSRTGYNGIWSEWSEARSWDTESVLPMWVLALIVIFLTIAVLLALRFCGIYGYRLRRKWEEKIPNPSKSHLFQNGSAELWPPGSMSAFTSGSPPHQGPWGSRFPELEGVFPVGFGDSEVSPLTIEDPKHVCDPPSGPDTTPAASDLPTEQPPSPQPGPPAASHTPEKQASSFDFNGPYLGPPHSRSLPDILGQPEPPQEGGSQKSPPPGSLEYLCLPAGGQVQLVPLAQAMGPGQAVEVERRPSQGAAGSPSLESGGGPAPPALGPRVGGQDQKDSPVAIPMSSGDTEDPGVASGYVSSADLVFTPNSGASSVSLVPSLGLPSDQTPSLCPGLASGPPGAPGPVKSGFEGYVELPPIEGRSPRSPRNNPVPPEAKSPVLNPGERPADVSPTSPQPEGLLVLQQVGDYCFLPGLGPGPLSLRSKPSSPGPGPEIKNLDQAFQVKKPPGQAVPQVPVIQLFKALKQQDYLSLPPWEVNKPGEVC
Tyk2 kinase domain (DH1), sequence (P29597 897-1176): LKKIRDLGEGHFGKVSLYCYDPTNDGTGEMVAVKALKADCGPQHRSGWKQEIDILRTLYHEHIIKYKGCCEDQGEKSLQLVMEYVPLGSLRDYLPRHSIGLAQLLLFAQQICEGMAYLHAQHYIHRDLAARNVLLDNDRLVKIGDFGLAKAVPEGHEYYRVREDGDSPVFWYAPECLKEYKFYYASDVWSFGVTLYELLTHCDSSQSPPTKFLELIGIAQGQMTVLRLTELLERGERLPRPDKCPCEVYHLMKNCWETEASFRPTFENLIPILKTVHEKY
JAK2 kinase domain (JH1), sequence (O60674 849-1124): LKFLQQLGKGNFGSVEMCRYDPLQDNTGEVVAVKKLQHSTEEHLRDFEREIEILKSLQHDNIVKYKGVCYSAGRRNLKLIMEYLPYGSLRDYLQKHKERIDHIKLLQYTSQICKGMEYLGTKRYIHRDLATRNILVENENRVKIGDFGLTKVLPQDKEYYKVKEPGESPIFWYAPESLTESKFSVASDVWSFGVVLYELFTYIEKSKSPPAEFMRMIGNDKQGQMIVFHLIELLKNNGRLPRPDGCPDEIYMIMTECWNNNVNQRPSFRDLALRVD

Row | SMILES | IC50 [1] [nM] | Kd [2] [nM] | inhibition at 10 µM (Tyk2 kinase domain (DH1)) [%] | inhibition at 10 µM (JAK2 kinase domain (JH1)) [%] | IC50 [3] [nM]
1 | CNc1cc(Nc2cccnc2OC(C)C)nc2c(C(N)=O)cnn12 [I-72] | > 12500 | < 0.2 | < 50 | < 50 | 100 to 500
2 | CNc1cc(Nc2cccc(N3CCCC3=O)n2)nc2c(C(=O)NC3CCC3)cnn12 [I-94] | > 50000 | < 0.2 | < 50 | < 50 | < 100
3 | CNc1cc(Nc2cccn(-c3cnc(C(C)(C)O)cn3)c2=O)nc2c(C(=O)NC3CCC3)cnn12 [I-95] | > 50000 | < 0.2 | < 50 | < 50 | < 100
4 | CNc1cc(Nc2cccc(N3CCOC3=O)n2)nc2c(C(=O)NC3CCC3)cnn12 [I-105] | > 12500 | < 0.2 | < 50 | 50 to 70 | < 100
5 | CNc1cc(Nc2cccnc2OC)nc2c(C(=O)N[C@H]3C[C@H]3F)cnn12 [I-110] | > 50000 | < 0.2 | < 50 | < 50 | < 100
6 | CNc1cc(Nc2cccn(-c3ccc(C(=O)N4CCCC4)cn3)c2=O)nc2c(C(=O)NC3CCC3)cnn12 [I-121] | > 12500 | < 0.2 | < 50 | < 50 | 100 to 500
7 | CCn1cc(Cl)cc(Nc2cc(NC)n3ncc(C(=O)NC4CC4)c3n2)c1=O [I-133, 5-((5-chloro-1-ethyl-2-oo-1,2-dihydropyridin-3-yl)amino)-N-cyclopropyl-7-(methylamino)pyrazolo[1,5-a]pyrimidine-3-carboxamide] | > 12500 | < 0.2 | < 50 | < 50 | < 100
8 | CNc1cc(Nc2cccn(-c3ccc(N4CCOCC4)cc3)c2=O)nc2c(C(=O)N[C@H]3C[C@H]3F)cnn12 [I-135] | > 2500 | < 0.2 | < 50 | < 50 | < 100
9 | CNc1cc(Nc2cccn(-c3cc(C)n(C)n3)c2=O)nc2c(C(=O)NC3CCC3)cnn12 [I-136] | > 2500 | < 0.2 | < 50 | < 50 | < 100
10 | CNc1cc(Nc2cccn(-c3cc(C)n(C)n3)c2=O)nc2c(C(=O)NC3CC3)cnn12 [I-138] | > 50000 | < 0.2 | < 50 | < 50 | < 100
11 | CNc1cc(Nc2cccn(-c3ccn(C)n3)c2=O)nc2c(C(=O)NC3CCC3)cnn12 [I-139] | > 50000 | < 0.2 | < 50 | < 50 | < 100
12 | CNc1cc(Nc2cccnc2OC(C)C)nc2c(C(=O)NC3CCC3)cnn12 [I-145] | > 50000 | < 0.2 | < 50 | < 50 | 100 to 500
13 | CNc1cc(Nc2cccnc2OC(C)C)nc2c(C(=O)N[C@H]3C[C@H]3F)cnn12 [I-147] | > 50000 | < 0.2 | < 50 | < 50 | < 100
14 | CNc1cc(Nc2cccnc2OC(F)F)nc2c(C(=O)NC3CCC3)cnn12 [I-151] | > 50000 | < 0.2 | < 50 | < 50 | < 100
15 | CNc1cc(Nc2cccnc2OC(F)F)nc2c(C(=O)N[C@H]3C[C@H]3F)cnn12 [I-153] | > 12500 | < 0.2 | < 50 | 50 to 70 | < 100
16 | CNc1cc(Nc2cccnc2OC(F)F)nc2c(C(=O)NC3CC3)cnn12 [I-154] | > 12500 | 0.2 to 1 | < 50 | 50 to 70 | < 100
17 | CNc1cc(Nc2cccn(-c3cccc(C(C)(C)O)n3)c2=O)nc2c(C(=O)NC3CCC3)cnn12 [I-156] | > 12500 | < 0.2 | < 50 | < 50 | < 100
18 | CNc1cc(Nc2cccn(-c3ccon3)c2=O)nc2c(C(=O)NC3CCC3)cnn12 [I-158] | > 50000 | < 0.2 | < 50 | < 50 | < 100
19 | CNc1cc(Nc2cccn(-c3cc(C)on3)c2=O)nc2c(C(=O)NC3CCC3)cnn12 [I-160] | > 12500 | < 0.2 | < 50 | < 50 | < 100
20 | CNc1cc(Nc2cccn(-c3cc(C)on3)c2=O)nc2c(C(=O)NC3CC3)cnn12 [I-162] | > 2500 | < 0.2 | < 50 | < 50 | < 100
21 | CNc1cc(Nc2cccn(-c3ccc(N4CCOCC4)cn3)c2=O)nc2c(C(=O)NC3CCC3)cnn12 [I-163] | > 2500 | 0.2 to 1 | < 50 | < 50 | < 100
22 | CNc1cc(Nc2cccnc2OC2CCC2)nc2c(C(=O)N[C@H]3C[C@H]3F)cnn12 [I-170] | > 50000 | < 0.2 | < 50 | < 50 | < 100
23 | [2H]C([2H])([2H])Oc1ncccc1Nc1cc(NC)n2ncc(C(=O)NC3CCC3)c2n1 [I-176] | > 50000 | < 0.2 | < 50 | < 50 | < 100
24 | [2H]C([2H])([2H])Oc1ncccc1Nc1cc(NC)n2ncc(C(=O)N[C@H]3C[C@H]3F)c2n1 [I-177] | > 12500 | < 0.2 | < 50 | < 50 | < 100

The next lines start with the values.

Row | IC50 [1] [nM] | Kd [2] [nM] | inhibition at 10 µM (Tyk2 kinase domain (DH1)) [%] | inhibition at 10 µM (JAK2 kinase domain (JH1)) [%] | IC50 [3] [nM] | SMILES
25 | > 12500 | < 0.2 | < 50 | < 50 | < 100 | CNc1cc(Nc2cccn(-c3ccc(F)cn3)c2=O)nc2c(C(=O)N[C@H]3C[C@H]3F)cnn12 [I-115]
26 | > 2500 | < 0.2 | < 50 | < 50 | < 100 | CCOc1ccc(-n2cccc(Nc3cc(NC)n4ncc(C(=O)N[C@H]5C[C@H]5F)c4n3)c2=O)nn1 [I-117]
27 | > 2500 | < 0.2 | < 50 | < 50 | < 100 | CNc1cc(Nc2cccn(-c3cnc(C(=O)N(C)C)cn3)c2=O)nc2c(C(=O)NC3CCC3)cnn12 [I-122]
28 | > 50000 | < 0.2 | < 50 | < 50 | < 100 | CNc1cc(Nc2cccn(-c3cccc(C(C)(C)O)n3)c2=O)nc2c(C(=O)N[C@H]3C[C@H]3F)cnn12 [I-123]
29 | > 50000 | < 0.2 | < 50 | < 50 | < 100 | CNc1cc(Nc2cccn(-c3cnc(C(=O)N(C)C)cn3)c2=O)nc2c(C(=O)N[C@H]3C[C@H]3F)cnn12 [I-126]
30 | > 12500 | < 0.2 | < 50 | < 50 | < 100 | CNc1cc(Nc2cccn(-c3cnc(C(=O)N(C)C)cn3)c2=O)nc2c(C(=O)NC3CC3)cnn12 [I-127, N-cyclopropyl-5-((1-(5-(dimethylcarbamoyl)pyrazin-2-yl)-2-oxo-1,2-dihydropyridin-3-yl)amino)-7-(methylamino)pyrazolo[1,5-a]pyrimidine-3-carboxamide]
31 | > 12500 | 1 to 10 | < 50 | < 50 | < 100 | CNc1cc(Nc2cccn(-c3cccc(C)n3)c2=O)nc2c(C(=O)N[C@H]3C[C@H]3F)cnn12 [I-131]
32 | > 2500 | < 0.2 | < 50 | < 50 | < 100 | CNc1cc(Nc2cccn(-c3ccc(F)cc3)c2=O)nc2c(C(=O)N[C@H]3C[C@H]3F)cnn12 [I-132]
33 | > 50000 | < 0.2 | < 50 | < 50 | < 100 | CNc1cc(Nc2cccn(-c3cc(C)n(C)n3)c2=O)nc2c(C(=O)N[C@H]3C[C@H]3F)cnn12 [I-137]
34 | > 50000 | < 0.2 | < 50 | < 50 | < 100 | CNc1cc(Nc2cccn(-c3ccc(C)nn3)c2=O)nc2c(C(=O)NC3CCC3)cnn12 [I-141]
35 | > 12500 | < 0.2 | < 50 | < 50 | < 100 | CNc1cc(Nc2cccn(-c3cc(C)on3)c2=O)nc2c(C(=O)N[C@H]3C[C@H]3F)cnn12 [I-161]
36 | > 50000 | < 0.2 | < 50 | < 50 | < 100 | CNc1cc(Nc2cc(Cl)cn(-c3ccc(C)nn3)c2=O)nc2c(C(=O)N[C@H]3C[C@H]3F)cnn12 [I-164]
37 | > 2500 | < 0.2 | < 50 | < 50 | < 100 | CNc1cc(Nc2cccn(-c3ccc(C4CC4)nn3)c2=O)nc2c(C(=O)N[C@H]3C[C@H]3F)cnn12 [I-165]
